Results published in patent US20220040136A1, “TREATMENT OF VULVOVAGINAL DISORDERS” (University of Rochester, priority 2018, published 2022).

What was measured:
human vulvar fibroblasts = test: In vitro LPV model: SPM post-treatment of already activated patient fibroblasts, IL-6 and PGE2; type: cell-based; conditions: post-treatment: IL-1β 30 min, then 5 nM SPM 18 hours, booster dose 6 hr
Method: FIGS. 5A, 5B, 5C, and 5D are a set of diagrams showing that PGE2 and IL-6 production is reduced by SPMs. Patient vestibular or vulvar fibroblasts were pre-treated for 10 hours with Lipoxin A4 (LxA4), Resolvin D2 (RvD2), (7R)-Maresin 1 or epi(7S)-Maresin 1 at a 5 nM concentration, then activated with IL-1β (Panel A; 10 pg/ml) or bradykinin (Panel B; 100 nM) for 48 hr. Culture media were collected and analyzed for PGE2 (Panel A) or IL-6 (Panel B) content. Patient fibroblasts were also activated first with IL-1β for 30 min then treated with 5 nM (7R)-Maresin 1 or LXA4 for 18 hours, followed by a booster dose for 6 hr. Culture media were collected and analyzed for PGE2 (Panel C) or IL-6 (Panel D) content. Mean+/−SEM of n=3, ANOVA *p<0.05 vs. activation only (no SPM).
FIGS. 24A and 24B are diagrams showing that six SPMs are effective in reducing IL-6 and PGE2 production from fibroblasts when used as a post-treatment. Patient vestibular or vulvar fibroblasts were activated first with IL-1β for 30 min then treated with RvD3, RvD4, RvD5, RvE1, Protectin D1 or Protectin DX at a 5 nM concentration for 18 hours, followed by a booster SPM dose for 24 hr. Culture media were collected and analyzed for IL-6 (Panel A) and PGE2 (Panel B) content. Mean+/−SEM of n=6 (two cases run in triplicate), ANOVA *p<0.05 vs. activation only (IL-1b). […] The magnitude of reduction was not as great as pre-treatment, but equally significant as the reduction from pre-treatment regimens.
In this example, a fibroblast-based in vitro LPV model was established. Briefly, fibroblast strains were obtained from two regions (FIG. 1) of the lower genital tract of localized provoked vulvodynia (LPV) cases and pain-free controls in the manner described in Falsetta et al. Am J Obstet Gynecol 2015, vol. 213, pp. 38 e1-12 and Foster et al., Pain 2015, vol. 156, pp. 386-96.
Over 30 paired fibroblast strains obtained from LPV-afflicted cases (fulfilling Friedrich's Criteria)^25 and age/race-matched (critical variables influencing LPV),^26, 27 pain-free controls were obtained. All subjects who contributed to the library were premenopausal, denied oral corticosteroids, non-steroidal, immunomodulatory, or anti-inflammatory medication use, and reported an absence of systemic/cutaneous inflammatory conditions at the time of sample collection. Mechanical pain thresholds were determined (via a method of limits) (0.5-5 N) using a Wagner algometer. Fibroblast identity was confirmed by microscopy and fibroblast markers (vimentin, collagen); only low passage (˜4) cells are used.
Synthesized, purified and commercially available SPMs from each known SPM class (E-series Resolvins, D-series Resolvins, Maresins, Protectins and Lipoxins) at low/nanomolar concentrations (1-100 nM) were tested. […] The inventors used one of two treatment regimens proven effective in vulvar fibroblasts and other cells: 1) overnight pre-treatment, followed by another treatment 30 min prior to stimulation with proinflammatory stimuli for 48 hr with a third dose of SPMs at 24 hr post-challenge, or 2) post-treatment with SPMs after a 30 min pre-treatment with inflammatory stimuli, followed by a booster dose 18 hr later. Both treatment regimens are of interest, as SPMs are active throughout the inflammatory process.^5-7 Even SPMs administered after LPV onset are likely to prevent the worsening or spread of LPV pain.

C57BL/6 mice = test: Mouse model of LPV (zymosan-induced vulvar allodynia), topical Maresin 1; type: in vivo; conditions: topical 1 μg/mouse/day, daily for 4 weeks
Text: FIG. 9 is a diagram showing that PGE2 in vaginal lavage is associated with pain threshold. After induction of allodynia for up to 6 weeks (indicated by reduced pain threshold, red line), Maresin 1 was applied to C57BL/6 mouse vulvas to reduce pain and increase pain threshold. PGE2 content in vaginal lavage samples (blue line) rapidly increases during the induction phase, indicating pain-associated inflammation waning with treatment. SEM shown, n=8.
In the mouse model, zymosan (a proinflammatory yeast cell wall preparation) was used to induce sustained vulvar allodynia, measured by pain threshold testing. […]
Using this approach, inventors confirmed that one could induce vulvar allodynia, measure pain responses via mechanical threshold determination, and assess treatment responses. However, inventors implemented several modifications to improve the robustness of the model including the following: 1) use a genetically tractable inbred strain, 2) validation of the use of an electronic von Frey (EvF) system, 3) assessment of the impact of behavioral conditioning on pain response, 4) weekly collection of vulvovaginal lavages for proinflammatory mediator quantification, and 5) testing the ability of a selected SPM (e.g., Maresin 1) to modulate pain and inflammation in our new model. […]

CC/C=C\C/C=C\C[C@H](O)\C=C/C=C/C=C/[C@H](O)C/C=C\CCC(=O)O [Maresin 1, 7R,14S-docosa-4Z,8E,10E,12Z,16Z,19Z-hexaenoic acid]
PGE2 levels (human vulvar fibroblasts; FIG. 5C): significantly reduced | IL-6 levels (human vulvar fibroblasts; FIG. 5D): significantly reduced | PGE2 levels in vaginal lavage (C57BL/6 mice): suppressed and maintained at levels below baseline | pain threshold (electronic von Frey) (C57BL/6 mice; after allodynia induction): complete restoration to the pre-induction thresholds
